Patent US9988355B2, “Form A of mesylate for nicotinamide derivatives and preparation method and application thereof” (SHANGHAI SUNTRONG BIOTECHNOLOGY CO., LTD., priority 2014, dated 2018)
Where a name gives a salt, the structure may show the parent alone.

Legend:
Type in all cases: physicochemical
[1] = High-temperature, high-humidity and light stability of the crystal form, XRPD after 5 days
Protocol: Embodiment 14. Determination of High-Temperature Stability, High-Humidity Stability and Light Stability of the Mesylate Crystal Form A of Nicotinamide Derivatives of the Present Invention
The mesylate crystal form A of nicotinamide derivatives prepared according to the method of the embodiment 4 was tested.
(1) High-Temperature Stability
(2) High-Humidity Stability

[2] = Solubility comparison of different crystal forms in water and ethanol
Source text: Embodiment 15. Solubility Comparison of Different Crystal Forms
The form A of mesylate for niacinamide derivatives prepared according to the method of the embodiment 4 and the needle solid of nicotinamide derivatives mesylate prepared according to the method of the embodiment 10 were respectively dissolved in water and ethanol, and solubility results were shown in Table 1.

[3] = Stability comparison of different crystal forms determined by HPLC, 6 months
Protocol: Embodiment 16. Stability Comparison of Different Crystal Forms Determined by HPLC
The form A of mesylate for niacinamide derivatives prepared according to the method of the embodiment 4 and the mesylate needles of nicotinamide derivatives prepared according to the method of the embodiment 10 were respectively put in the environment with light, high humidity (relative humidity (RH) is 90%), room temperature and high temperature (60° C.) for 6 months, the contents of related substances of the sample were determined by adopting HPLC, and examination results were shown in Table 2. HPLC testing conditions: chromatographic column Venusil MP-C18 (4.6 mm×250 mm, 5 μm, 100 Å); Mobile phase A: 0.1% acetum, B: acetonitrile, gradient conditions (0 min, 95% A; 20 min, 5% A; 25 min, 5% A; 30 min, 95% A); Detection wavelength 254 nm; Flowing speed 1 ml/min; Column temperature 30° C.; Sample amount 20 μl.

[4] = Stability comparison of different crystal forms by solid-state representation means (XRPD), 6 months
Protocol: Embodiment 17. Stability Comparison of Different Crystal Forms Determined by Adopting Solid-State Representation Means
The form A of mesylate for niacinamide derivatives prepared according to the method of the embodiment 4 and the needles solid of nicotinamide derivatives mesylate prepared according to the method of the embodiment 10 were respectively put in the environment with light, high humidity (relative humidity (RH) is 90%), room temperature and high temperature (60° C.) for 6 months, XRPD determination was performed by adopting a solid-state representation means, and examination results were shown in Table 3.

[5] = Hygroscopicity determination by TGA after storage at room temperature, humidity 40%
Protocol: Embodiment 11. Hygroscopicity Determination of the Contrast Needles Shape Solid of Nicotinamide Derivatives Mesylate
The obtained compound referred in a Chinese patent CN101676267 was 180.2 g of white needle-like crystals (0.365 mol) with the molecular weight being 493.5. It can thus be seen that the contrast needles shape solid of nicotinamide derivatives mesylate was anhydrate. The white needles of nicotinamide derivatives mesylate were prepared according to the method of […], and a DSC-TGA pattern of the needles as shown in FIG. 2 was obtained. Wherein, the testing conditions of differential scanning calorimetry (DSC) were 10° C./min with range of 30-300° C., and TGA testing conditions were 10° C./min from room temperature to 350° C. A proper amount of the needle samples of nicotinamide derivatives mesylate were placed at the room temperature under the humidity condition of 40%, and TGA detection was conducted on the solid respectively at the time intervals of 24 hours, 48 hours and 72 hours.

SMILES	High-humidity stability (XRPD compared with FIG. 1) ([1]; airtight container, humidity 92.5%)	High-temperature stability (XRPD compared with FIG. 1) ([1]; airtight drying oven of 60° C.)	Light stability (XRPD compared with FIG. 1) ([1]; transparent container, light 4500 lux)	Water solubility [2]	Contents of related substances of the sample by HPLC ([3]; 60° C. for 6 months) [%]	Contents of related substances of the sample by HPLC ([3]; Illuminating for 6 months) [%]	Contents of related substances of the sample by HPLC ([3]; RH90% for 6 months) [%]	Contents of related substances of the sample by HPLC ([3]; Room temperature for 6 months) [%]	Crystal form after storage (XRPD) ([4]; 60° C. for 6 months)	Crystal form after storage (XRPD) ([4]; Illuminating for 6 months)	Crystal form after storage (XRPD) ([4]; RH90% for 6 months)	Crystal form after storage (XRPD) ([4]; Room temperature for 6 months)	Hygroscopicity (conclusion in words) ([5]; 24-72 hours)	TGA weight loss after storage under humidity ([5]; 24 hours) [%]	TGA weight loss after storage under humidity ([5]; 48 hours) [%]	TGA weight loss after storage under humidity ([5]; 72 hours) [%]
N#CC1(c2ccc(NC(=O)c3cccnc3NCc3ccncc3)cc2)CCCC1 [The form A of mesylate for niacinamide derivatives of the pr] [N-[4-(1-cyanocyclopentyl)phenyl]-2-(4-pyridylmethyl) amidogen-3-pyridineethanamine]	good stability in a high-humidity environment	good high-temperature stability	good light stability	Insoluble	98.1	99.6	98.5	99.4	Unchanged	Unchanged	Unchanged	Unchanged	–	–	–	–
N#CC1(c2ccc(NC(=O)c3cccnc3NCc3ccncc3)cc2)CCCC1 [Contrast needles, N-[4-(1-cyanocyclopentyl)phenyl]-2-(4-pyridylmethyl) amidogen-3-pyridineethanamine]	–	–	–	Insoluble	98.2	99.4	98.8	99.2	Unchanged	Unchanged	–	–	a certain hygroscopicity	3.311	3.191	3.332
